Data from patent US11872262B2, “Means and methods for treating bacterial infections” (VIB VZW, priority 2017, dated 2024).
In brackets after ≈: the same amount, converted by molar mass. Read-outs that look alike come from different tables or passages of the source. Residues, ends and D or L forms follow the SMILES beside them.

Legend:
[1] = tested on: E. coli K-12 BW25113 strain (KEIO collection); assay type: cell-based, Escherichia coli
Description: (§1) The MICs of active peptides were determined via the Broth microdilution assay according to the EUCAST guideline, which were performed in 96-well polystyrene flat-bottom microtiter plates (BD Biosciences). Briefly, a single colony was inoculated into 5 mL LB medium and grown to the end-exponential growth phase in a shaking incubator at 37° C. Cultures were subsequently diluted to an OD600 of 0.002 ([…]) in fresh LB medium. 100 μL of LB medium with different concentration of peptides ranging from 100 μg/mL to 1 μg/mL were serially diluted to the sterile 96-well plate (at least 3 wells in each plate). Afterward, 100 μL of the diluted bacteria were pipetted into 96-well plates containing different concentration of peptides. In each plate, the grown bacteria with maximum concentration of carrier and medium were considered as positive and negative controls, respectively. Thereafter, 96-well plates was statically incubated overnight at 37° C. to allow bacterial growth. A multipurpose UV/VIS plate reader at OD590 nm, 1 s shaking measured the absorbance of the growth bacteria using a Perkin Elmer spectrophotometer (1420 Multilabel Counter Victor 3).

E. coli O157 = assay type: cell-based, Escherichia coli; conditions: E. coli 0157 (Table 2)
Description: as §1

E. coli O157:H7 = assay type: cell-based, Escherichia coli; conditions: screening-stage peptides tested at 1, 6, 12 and 25 μg/mL
How it was run: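 Tandem-repeat aggregation-prone-region peptides from DMSO stocks were tested for growth inhibition of E. coli O157:H7 at 1, 6, 12 and 25 μg/mL.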

[2] = ELISA on immobilised colpeptin1 with serum of treated animals; assay type: in vivo; conditions: mice treated for 18 days with 30 mg/kg
Description: FIG. 2: Cross seeding and in vivo activity. (A) Fluorescence microscopy image of HeLa cells mixed with E. coli O157 and treated with FITC-labelled Colpeptin1 (green channel). Blue channel is DAPI, red is CellMask Deep Red plasma membrane dye. (D) Inhibitor effect of Colpeptin1 on bacterial growth in the presence of human blood serum (average and s.d. of 3 replicates). (E) ELISA on immobilised colpeptin1 using blood serum of animals treated for 18 days with 30 mg/kg colpeptin1 (3 replicates from 3 mice). […] See materials and methods for details.
Given these positive results, we then established the tolerance of the Swiss mice to the peptide by performing a dose escalation experiment. […] The parameters observed included body weight, food and water consumption, home cage activity and locomotion. […] Based on these observations, we tested the antibacterial efficacy of the colpeptin1 in a mouse bladder infection model. In this model, an inoculum of 50 μL of a 10^8 CFU/mL suspension of E. coli O157:H7 was delivered via the urethra to the bladder of healthy Swiss mice. 1 h post-infection, we administered a single injection of colpeptin1 at 10 mg/kg, either via the urethra (n=15) or intraperitoneally (n=15). 24 h after treatment, the animals were sacrificed and the bacterial titer in kidney, colon, bladder and ureter was determined by plating the macerated tissue (FIG. 2F-l).

HeLa cells = assay: In vitro mammalian cytotoxicity (LDH release, CellTiter Blue); assay type: cell-based, human
Description: Mammalian cytotoxicity was measured using the LDH release (Roche, Mannheim, Germany) and CellTiter Blue (Promega) methods. Briefly, HeLa cells (obtained from Bart De Strooper lab, tested to be mycoplasma free) were seeded in 96-well round bottom plates at a concentration of 3×10^5 cells/mL in Dulbecco's Modified Eagle's Medium and treated by different concentrations of peptides. Cells treated with 1% Triton™ X-100 and vehicle were considered as positive and negative controls, respectively. Micro-plates were incubated at 37° C., 5% CO2 and 90% humidity for 4 hours. The micro-plate was centrifuged at 1350 rpm for 10 minutes. 100 μL of supernatant was transferred into clear 96-well flat bottom microplates. In order to determine LDH activity in the supernatants, 100 μl reaction mix (catalyst and dye solution) were added to each well and incubated for 30 min at RT in the dark and the LDH reaction was stopped by adding 100 ul of the Stop solution. The absorbances of the samples were measured at 490 nm. The cell viability was calculated using the formula: (exp. value−negative control value)/(positive control value−negative control value)*100. The amount of absorbance is proportional to the number of living cells and corresponds to the cells' metabolic activity.

Compound `CC(C)C[C@H](NC(=O)CNC(=O)[C@H](CCCNC(=N)N)NC(=O)[C@@H]1CCCN1C(=O)[C@H](CCCNC(=N)N)NC(=O)[C@H](CCCNC(=N)N)NC(=O)[C@@H](NC(=O)[C@H](CC(C)C)NC(=O)[C@H](C)NC(=O)[C@H](CC(C)C)NC(=O)CNC(=O)[C@H](CC(C)C)NC(=O)CNC(=O)[C@@H](N)CCCNC(=N)N)C(C)C)C(=O)NCC(=O)N[C@@H](CC(C)C)C(=O)N[C@@H](C)C(=O)N[C@@H](CC(C)C)C(=O)N[C@H](C(=O)N[C@@H](CCCNC(=N)N)C(=O)N[C@@H](CCCNC(=N)N)C(=O)O)C(C)C` [Peptide P2] (H-RGLGLALVRRPRGLGLALVRR-OH) has an MIC ([1]; KEIO WT) of 12 µg/mL (≈ 5.22 µM), an MIC ([1]; Δ Clp A) of 12 µg/mL (≈ 5.22 µM) and an MIC ([1]; Δ Clp B) of 12 µg/mL (≈ 5.22 µM). The MIC ([1]; Δ Clp P) was 12 µg/mL (≈ 5.22 µM), the MIC ([1]; Δ Clp S) was 12 µg/mL (≈ 5.22 µM) and the MIC ([1]; Δ Clp X) was 12 µg/mL (≈ 5.22 µM). The MIC ([1]; Δ Dan J) was 12 µg/mL (≈ 5.22 µM), the MIC ([1]; Δ Dan K) was 6 µg/mL (≈ 2.61 µM) and the MIC ([1]; Δ gro L) was 12 µg/mL (≈ 5.22 µM). The MIC ([1]; Δ htp G) was 12 µg/mL (≈ 5.22 µM), the MIC (E. coli O157) was 6 µg/mL (≈ 2.61 µM) and the “E. coli O157 (apparent MIC in screen)” value (E. coli O157:H7) was 6 µg/mL. The “antibody response towards the peptide (ELISA on serum)” value [2] was “no specific antibody response” and the “toxicity towards mammalian cells” value (HeLa cells) was “little or no toxicity towards mammalian cells”.
